Laboratory results as given in US12180187B2, “1-phenyl-5-azinylpyrazolyl-3-oxyalkyl acids and their use for controlling unwanted plant growth” (BAYER AKTIENGESELLSCHAFT, priority 2019, dated 2024).

Legend:
AMARE [1] = assay: Post-emergence action against AMARE, 1.28 kg/ha; type: in vivo, Amaranthus retroflexus; conditions: dosage 1280 g/ha, visual rating about 3 weeks after treatment vs untreated controls (100% = plants died)
Method: (§1) • a) Seeds of mono- and dicotyledonous weed plants are placed in plastic pots in sandy loam soil (twin sowing with one species each of mono- or dicotyledonous weed plants per pot), covered with soil and cultivated in a greenhouse under controlled growth conditions. 2 to 3 weeks after sowing, the test plants are treated at the one-leaf stage. The compounds of the invention, formulated in the form of wettable powders (WP) or as emulsion concentrates (EC), are applied to the green parts of the plants as aqueous suspension or emulsion with addition of 0.5% additive at a water application rate equivalent to 600 litres per hectare. After the test plants have been kept in the greenhouse under optimum growth conditions for about 3 weeks, the activity of the preparations is rated visually in comparison to untreated controls. For example, 100% activity=the plants have died, 0% activity=like control plants. As shown by the results, compounds of the general formula (I) of the invention, in post-emergence treatment, have very good herbicidal efficacy (90% to 100% herbicidal action) against harmful plants such as Abutilon theophrasti, Digitaria sanguinalis, Echinochloa crus-galli, Matricaria inodora, Poa annua, at an application rate of 1.28 kg of active substance per hectare.

DIGSA [2] = assay: Pre-emergence action against DIGSA, 1280 g/ha; type: in vivo, Digitaria sanguinalis; conditions: visual scoring after about 3 weeks vs untreated controls, 100% = plants have died, 0% = like control plants
Text: (§2) 1. Pre-Emergence Herbicidal Effect and Crop Plant Compatibility a) Seeds of mono- and dicotyledonous weed plants are placed in plastic pots in sandy loam soil (doubly sown with one species each of mono- or dicotyledonous weed plants per pot) and covered with soil. The compounds of the invention, formulated in the form of wettable powders (WP) or as emulsion concentrates (EC), are then applied onto the surface of the covering soil as aqueous suspension or emulsion with addition of 0.5% additive at a water application rate equivalent to 600 litres per hectare. After the treatment, the pots are placed in a greenhouse and kept under good growth conditions for the trial plants. After about 3 weeks, the effect of the preparations is scored visually in comparison with untreated controls as percentages. For example, 100% activity=the plants have died, 0% activity=like control plants. 1. Pre-Emergence Effectiveness Tables 1 to 12 below show the effects of selected compounds of the general formula (I) according to Tables 1 and 2 on various harmful plants and at an application rate corresponding to 1280 g/ha, which were obtained by the experimental procedure mentioned above.

STEME [3] = assay: Pre-emergence action against STEME, 1280 g/ha; type: in vivo, Stellaria media; conditions: scored visually after about 3 weeks vs untreated controls (100% = plants have died)
Text: as §2

ALOMY [4] = assay: Pre-emergence action against ALOMY, 1280 g/ha; type: in vivo, Alopecurus myosuroides; conditions: visual scoring after about 3 weeks vs untreated controls, 100% = plants have died, 0% = like control plants
Text: as §2

SETVI = assay: Pre-emergence action against SETVI, 1280 g/ha; type: in vivo, Setaria viridis; conditions: visual scoring after about 3 weeks vs untreated controls, 100% = plants have died, 0% = like control plants
Text: as §2

MATIN [5] = assay: Pre-emergence action against MATIN, 1280 g/ha; type: in vivo, Tripleurospermum inodorum (Matricaria inodora); conditions: scored visually after about 3 weeks vs untreated controls (100% = plants have died)
Text: as §2

LOLRI = assay: Pre-emergence action against LOLRI, 1280 g/ha; type: in vivo, Lolium rigidum; conditions: visual scoring after about 3 weeks vs untreated controls, 100% = plants have died, 0% = like control plants
Text: as §2

POAAN [6] = assay: Pre-emergence action against POAAN, 1280 g/ha; type: in vivo, Poa annua; conditions: visual scoring after about 3 weeks vs untreated controls, 100% = plants have died, 0% = like control plants
Text: as §2

VERPE [7] = assay: Pre-emergence action against VERPE, 1280 g/ha; type: in vivo, Veronica persica; conditions: scored visually after about 3 weeks vs untreated controls (100% = plants have died)
Text: as §2

AMARE [8] = assay: Pre-emergence action against AMARE, 1280 g/ha; type: in vivo, Amaranthus retroflexus; conditions: scored visually after about 3 weeks vs untreated controls (100% = plants have died)
Text: as §2

ECHCG = assay: Pre-emergence action against ECHCG, 1280 g/ha; type: in vivo, Echinochloa crus-galli; conditions: visual scoring after about 3 weeks vs untreated controls, 100% = plants have died, 0% = like control plants
Text: as §2

ALOMY [9] = assay: Post-emergence action against ALOMY, 1.28 kg/ha; type: in vivo, Alopecurus myosuroides; conditions: dosage 1280 g/ha, visual rating about 3 weeks after treatment vs untreated controls
Method: as §1

POAAN [10] = assay: Post-emergence action against POAAN, 1.28 kg/ha; type: in vivo, Poa annua; conditions: dosage 1280 g/ha, visual rating about 3 weeks after treatment vs untreated controls
Method: as §1

MATIN [11] = assay: Post-emergence action against MATIN, 1.28 kg/ha; type: in vivo, Tripleurospermum inodorum (Matricaria inodora); conditions: dosage 1280 g/ha, visual rating about 3 weeks after treatment vs untreated controls (100% = plants died)
Method: as §1

VERPE [12] = assay: Post-emergence action against VERPE, 1.28 kg/ha; type: in vivo, Veronica persica; conditions: dosage 1280 g/ha, visual rating about 3 weeks after treatment vs untreated controls (100% = plants died)
Method: as §1

DIGSA [13] = assay: Post-emergence action against DIGSA, 1.28 kg/ha; type: in vivo, Digitaria sanguinalis; conditions: dosage 1280 g/ha, visual rating about 3 weeks after treatment vs untreated controls
Method: as §1

STEME [14] = assay: Post-emergence action against STEME, 1.28 kg/ha; type: in vivo, Stellaria media; conditions: dosage 1280 g/ha, visual rating about 3 weeks after treatment vs untreated controls (100% = plants died)
Method: as §1

| SMILES | Post-emergence action against AMARE (AMARE [1]) [%] | Pre-emergence action against DIGSA (DIGSA [2]) [%] | Pre-emergence action against STEME (STEME [3]) [%] | Pre-emergence action against SETVI (SETVI) [%] | Pre-emergence action against MATIN (MATIN [5]) [%] | Pre-emergence action against LOLRI (LOLRI) [%] | Pre-emergence action against POAAN (POAAN [6]) [%] | Pre-emergence action against VERPE (VERPE [7]) [%] | Pre-emergence action against AMARE (AMARE [8]) [%] | Post-emergence action against ALOMY (ALOMY [9]) [%] | Post-emergence action against POAAN (POAAN [10]) [%] | Post-emergence action against MATIN (MATIN [11]) [%] | Post-emergence action against VERPE (VERPE [12]) [%] | Post-emergence action against DIGSA (DIGSA [13]) [%] | other results |
| --- | --- | --- | --- | --- | --- | --- | --- | --- | --- | --- | --- | --- | --- | --- | --- |
| COC(=O)[C@@H](C)Oc1nn(-c2ccccc2F)c(-c2cnccn2)c1Br [Example I-001] | 90 | 90 | 100 | 90 | 90 | 90 | 100 | 100 | 100 |  |  |  |  |  | Pre-emergence action against ALOMY (ALOMY [4]): 90% |
| O=C(COc1nn(-c2ccccc2F)c(-c2ccc(F)nc2)c1Br)N1CCSC1=O [Example X-011] | 90 | 100 |  | 100 | 90 |  | 100 | 100 | 100 | 90 | 100 | 100 | 90 |  | Pre-emergence action against ECHCG (ECHCG): 100% |
| O=C(O)C1CCCN(C(=O)COc2nn(-c3ccccc3F)c(-c3cncc(F)c3)c2Br)C1 (centres unmarked) [Example X-033] | 100 | 90 | 90 | 90 | 90 |  | 100 | 90 | 90 | 100 | 100 | 100 | 100 | 90 | Pre-emergence action against ALOMY (ALOMY [4]): 90% |
| N#CCCNC(=O)COc1nn(-c2ccccc2F)c(-c2ccc(F)cn2)c1Br [II-005] |  |  |  |  |  |  |  |  | 90 |  |  |  |  |  |  |
| COC(=O)CNC(=O)COc1nn(-c2ccccc2F)c(-c2ccc(F)cn2)c1Br [II-013] |  | 100 | 100 | 100 | 90 | 100 | 100 | 100 | 90 | 90 | 90 | 90 | 90 |  | Pre-emergence action against ECHCG (ECHCG): 90%; Pre-emergence action against ALOMY (ALOMY [4]): 90% |
| O=C(COc1nn(-c2ccc(F)cc2F)c(-c2ccc(F)cn2)c1Br)NO [II-018] | 100 |  |  |  |  |  |  |  |  |  |  | 90 |  |  |  |
| CCOC(=O)COc1nn(-c2ccccc2F)c(-c2ccnnc2)c1C#N [IV-003, Ethyl {[4-cyano-1-(2-fluorophenyl)-5-(pyridazin-4-yl)-1H-pyrazol-3-yl]oxy}acetate] | 90 |  |  |  |  |  |  |  |  | 100 |  |  |  |  | pest or weed control at 1280 g/ha (STEME [3]; Stellaria media, 504 h): 100%; pest or weed control at 1280 g/ha (SETVI; Setaria viridis, 504 h): 100%; pest or weed control at 1280 g/ha (MATIN [5]; Tripleurospermum inodorum, 504 h): 90%; pest or weed control at 1280 g/ha (POAAN [6]; Poa annua, 504 h): 90%; pest or weed control at 1280 g/ha (VERPE [12]; Veronica persica, 504 h): 90%; pest or weed control at 1280 g/ha (VERPE [7]; Veronica persica, 504 h): 100%; pest or weed control at 1280 g/ha (AMARE [8]; Amaranthus retroflexus, 504 h): 90% |
| COC(=O)[C@@H](C)Oc1nn(-c2ccccc2F)c(-c2cncnc2)c1Cl [VI-017] | 90 |  | 90 |  | 100 |  | 90 | 100 | 100 |  |  |  |  |  | Pre-emergence action against ALOMY (ALOMY [4]): 90% |
| COC(=O)C(C)Oc1nn(-c2ccccc2)c(-c2ccc(C)nc2)c1Cl (centres unmarked) [VII-013] |  | 90 |  |  |  |  | 100 | 100 |  |  |  |  | 100 | 90 |  |
| COC(=O)C(C)Oc1nn(-c2ccccc2)c(-c2ccc(Cl)nc2)c1Cl (centres unmarked) [VII-017] |  | 90 |  |  |  |  | 90 | 100 | 90 |  |  |  | 100 | 90 |  |
| CCOC(=O)COc1nn(-c2ccccc2F)c(-c2ccc(F)nc2)c1SC [VII-021] |  |  |  |  |  |  | 90 |  | 90 |  |  |  |  |  |  |
| COC(=O)COc1nn(-c2ccccc2F)c(-c2ccc(OC)nc2)c1Br [VII-022] |  |  |  |  |  |  |  | 90 |  |  |  |  | 90 |  |  |
| CSc1c(OCC(=O)O)nn(-c2ccccc2F)c1-c1ccc(F)nc1 [VII-056] | 100 | 100 | 90 | 90 | 90 | 90 | 90 |  | 90 | 100 | 100 | 100 | 90 | 90 |  |
| CCOC(=O)COc1nn(-c2ccccc2F)c(-c2ccc(OCC)nc2)c1Br [VII-127] |  |  | 90 |  |  |  |  |  |  |  |  |  |  |  |  |
| CCOC(=O)COc1nn(-c2ccccc2F)c(-c2cnc(F)c(F)c2)c1Br [VII-148] | 100 | 100 | 90 | 90 | 90 | 90 | 100 | 90 | 100 | 100 | 100 | 100 |  | 100 | Pre-emergence action against ECHCG (ECHCG): 90% |
| COC(=O)COc1nn(-c2cc(F)ccc2F)c(-c2ccnc(F)c2)c1C#N [VIII-008] | 90 | 100 | 100 | 100 | 100 | 100 | 100 | 100 | 100 | 100 | 100 | 90 | 90 | 90 | Pre-emergence action against ECHCG (ECHCG): 100%; Post-emergence action against STEME (STEME [14]): 90% |
